Values quoted from earlier work as cited in patent US8636973B2, “Method of producing pharmacologically pure crystals” (Biosyn Arzneimittel GmbH, priority 2010, dated 2014).

How the values were obtained:
[1] = Janitzki, solubility studies
[2] = 14° C.

| SMILES | temperature at which the form is stable / exists [1] | solubility [2] [kg/l H2O] |
| --- | --- | --- |
| O.O.O.O.O.O.O.O.O=[Se]([O-])[O-].[Na+].[Na+] [Na2SeO3×8 H2O, Na2SeO3×8H2O] | up to −8.7 °C |  |
| O=[Se]=O [SeO2, selenium dioxide] |  | 0.384 |
